Assay results as given in the supplement of paper PMC10307832.

Tests used:
Experiment in all cases: relative viability (nuclei count vs DMSO), 5 days (fraction); higher = more cells survive
BEN = test system: BEN
In short: (§1)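 Lung cancer cell lines, seeded in 1536-well plates, were treated the following day by pin tool with a single drug or with five library-drug doses (not always all listed) in √10 steps on top of a fixed anchor-drug dose. Cells were fixed and nuclei stained in one step after 5 days, and nuclei were counted. Relative viability is the nuclei count for treated wells divided by that for vehicle wells, reported as medians of duplicate plates.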

EMC-BAC-2 = test system: EMC-BAC-2
In short: as §1

H3255 = test system: H3255
In short: as §1

HOP-62 = test system: HOP-62
In short: as §1

LCLC-97TM1 = test system: LCLC-97TM1
In short: as §1

LXF-289 = test system: LXF-289
In short: as §1

NCI-H1650 = test system: NCI-H1650
In short: as §1

NCI-H1915 = test system: NCI-H1915
In short: as §1

NCI-H1993 = test system: NCI-H1993
In short: as §1

NCI-H2009 = test system: NCI-H2009
In short: as §1

NCI-H2023 = test system: NCI-H2023
In short: as §1

NCI-H2085 = test system: NCI-H2085
In short: as §1

NCI-H2126 = test system: NCI-H2126
In short: as §1

NCI-H2342 = test system: NCI-H2342
In short: as §1

NCI-H2347 = test system: NCI-H2347
In short: as §1

NCI-H322M = test system: NCI-H322M
In short: as §1

NCI-H358 = test system: NCI-H358
In short: as §1

NCI-H647 = test system: NCI-H647
In short: as §1

NCI-H661 = test system: NCI-H661
In short: as §1

NCI-H727 = test system: NCI-H727
In short: as §1

PC-14 = test system: PC-14
In short: as §1

SK-LU-1 = test system: SK-LU-1
In short: as §1

SW 1573 = test system: SW 1573
In short: as §1

SMILES: Clc1ccc(Nc2nnc(Cc3ccncc3)c3ccccc23)cc1 [Vatalanib] + CC(=O)Nc1cccc(-n2c(=O)n(C3CC3)c(=O)c3c(Nc4ccc(I)cc4F)n(C)c(=O)c(C)c32)c1 [Trametinib] (partner 0.02 µM)
- relative viability (BEN; first compound 0.04 µM): 1.12
- relative viability (BEN; first compound 0.1265 µM): 1.04
- relative viability (BEN; first compound 0.4 µM): 0.976
- relative viability (BEN; first compound 1.265 µM): 1.12
- relative viability (BEN; first compound 4 µM): 0.977
- relative viability (EMC-BAC-2; first compound 0.04 µM): 0.902
- relative viability (EMC-BAC-2; first compound 0.1265 µM): 0.879
- relative viability (EMC-BAC-2; first compound 0.4 µM): 0.908
- relative viability (EMC-BAC-2; first compound 4 µM): 0.944
- relative viability (H3255; first compound 0.04 µM): 0.563
- relative viability (H3255; first compound 0.1265 µM): 0.606
- relative viability (H3255; first compound 0.4 µM): 0.57
- relative viability (H3255; first compound 1.265 µM): 0.583
- relative viability (H3255; first compound 4 µM): 0.58
- relative viability (HOP-62; first compound 0.04 µM): 0.388
- relative viability (HOP-62; first compound 0.1265 µM): 0.382
- relative viability (HOP-62; first compound 0.4 µM): 0.42
- relative viability (HOP-62; first compound 1.265 µM): 0.367
- relative viability (HOP-62; first compound 4 µM): 0.355
- relative viability (LCLC-97TM1; first compound 0.04 µM): 0.18
- relative viability (LCLC-97TM1; first compound 0.1265 µM): 0.197
- relative viability (LCLC-97TM1; first compound 0.4 µM): 0.198
- relative viability (LCLC-97TM1; first compound 1.265 µM): 0.195
- relative viability (LCLC-97TM1; first compound 4 µM): 0.184
- relative viability (LXF-289; first compound 0.04 µM): 0.688
- relative viability (LXF-289; first compound 0.1265 µM): 0.647
- relative viability (LXF-289; first compound 0.4 µM): 0.686
- relative viability (LXF-289; first compound 1.265 µM): 0.668
- relative viability (LXF-289; first compound 4 µM): 0.626
- relative viability (NCI-H1650; first compound 0.04 µM): 0.598
- relative viability (NCI-H1650; first compound 0.1265 µM): 0.532
- relative viability (NCI-H1650; first compound 0.4 µM): 0.306
- relative viability (NCI-H1650; first compound 1.265 µM): 0.656
- relative viability (NCI-H1650; first compound 4 µM): 0.508
- relative viability (NCI-H1915; first compound 0.04 µM): 0.32
- relative viability (NCI-H1915; first compound 0.1265 µM): 0.34
- relative viability (NCI-H1915; first compound 0.4 µM): 0.323
- relative viability (NCI-H1915; first compound 1.265 µM): 0.298
- relative viability (NCI-H1915; first compound 4 µM): 0.295
- relative viability (NCI-H1993; first compound 0.04 µM): 0.539
- relative viability (NCI-H1993; first compound 0.1265 µM): 0.452
- relative viability (NCI-H1993; first compound 0.4 µM): 0.54
- relative viability (NCI-H1993; first compound 1.265 µM): 0.459
- relative viability (NCI-H1993; first compound 4 µM): 0.49
- relative viability (NCI-H2009; first compound 0.04 µM): 0.32
- relative viability (NCI-H2009; first compound 0.1265 µM): 0.251
- relative viability (NCI-H2009; first compound 0.4 µM): 0.325
- relative viability (NCI-H2009; first compound 1.265 µM): 0.307
- relative viability (NCI-H2009; first compound 4 µM): 0.263
- relative viability (NCI-H2023; first compound 0.04 µM): 0.5
- relative viability (NCI-H2023; first compound 0.1265 µM): 0.529
- relative viability (NCI-H2023; first compound 0.4 µM): 0.477
- relative viability (NCI-H2023; first compound 1.265 µM): 0.503
- relative viability (NCI-H2023; first compound 4 µM): 0.517
- relative viability (NCI-H2085; first compound 0.04 µM): 0.516
- relative viability (NCI-H2085; first compound 0.1265 µM): 0.384
- relative viability (NCI-H2085; first compound 0.4 µM): 0.645
- relative viability (NCI-H2085; first compound 1.265 µM): 0.484
- relative viability (NCI-H2085; first compound 4 µM): 0.735
- relative viability (NCI-H2126; first compound 0.04 µM): 0.539
- relative viability (NCI-H2126; first compound 0.1265 µM): 0.612
- relative viability (NCI-H2126; first compound 0.4 µM): 0.591
- relative viability (NCI-H2126; first compound 1.265 µM): 0.528
- relative viability (NCI-H2126; first compound 4 µM): 0.536
- relative viability (NCI-H2342; first compound 0.04 µM): 0.766
- relative viability (NCI-H2342; first compound 0.1265 µM): 0.794
- relative viability (NCI-H2342; first compound 0.4 µM): 0.737
- relative viability (NCI-H2342; first compound 1.265 µM): 0.747
- relative viability (NCI-H2342; first compound 4 µM): 0.804
- relative viability (NCI-H2347; first compound 0.04 µM): 0.278
- relative viability (NCI-H2347; first compound 0.1265 µM): 0.277
- relative viability (NCI-H2347; first compound 0.4 µM): 0.279
- relative viability (NCI-H2347; first compound 1.265 µM): 0.266
- relative viability (NCI-H2347; first compound 4 µM): 0.309
- relative viability (NCI-H322M; first compound 0.04 µM): 0.416
- relative viability (NCI-H322M; first compound 0.1265 µM): 0.51
- relative viability (NCI-H322M; first compound 0.4 µM): 0.552
- relative viability (NCI-H322M; first compound 4 µM): 0.517
- relative viability (NCI-H358; first compound 0.04 µM): 0.156
- relative viability (NCI-H358; first compound 0.1265 µM): 0.122
- relative viability (NCI-H358; first compound 0.4 µM): 0.151
- relative viability (NCI-H358; first compound 1.265 µM): 0.13
- relative viability (NCI-H358; first compound 4 µM): 0.138
- relative viability (NCI-H647; first compound 0.04 µM): 0.538
- relative viability (NCI-H647; first compound 0.1265 µM): 0.614
- relative viability (NCI-H647; first compound 0.4 µM): 0.581
- relative viability (NCI-H647; first compound 1.265 µM): 0.407
- relative viability (NCI-H647; first compound 4 µM): 0.499
- relative viability (NCI-H661; first compound 0.04 µM): 0.636
- relative viability (NCI-H661; first compound 0.1265 µM): 0.533
- relative viability (NCI-H661; first compound 0.4 µM): 0.689
- relative viability (NCI-H661; first compound 1.265 µM): 0.59
- relative viability (NCI-H661; first compound 4 µM): 0.574
- relative viability (NCI-H727; first compound 0.1265 µM): 0.413
- relative viability (NCI-H727; first compound 0.4 µM): 0.377
- relative viability (NCI-H727; first compound 1.265 µM): 0.37
- relative viability (NCI-H727; first compound 4 µM): 0.394
- relative viability (PC-14; first compound 0.04 µM): 0.671
- relative viability (PC-14; first compound 0.1265 µM): 0.826
- relative viability (PC-14; first compound 0.4 µM): 0.991
- relative viability (PC-14; first compound 1.265 µM): 0.738
- relative viability (PC-14; first compound 4 µM): 0.6
- relative viability (SK-LU-1; first compound 0.04 µM): 0.59
- relative viability (SK-LU-1; first compound 0.1265 µM): 0.54
- relative viability (SK-LU-1; first compound 0.4 µM): 0.666
- relative viability (SK-LU-1; first compound 1.265 µM): 0.533
- relative viability (SK-LU-1; first compound 4 µM): 0.599
- relative viability (SW 1573; first compound 0.1265 µM): 0.569
- relative viability (SW 1573; first compound 0.4 µM): 0.607
- relative viability (SW 1573; first compound 1.265 µM): 0.58
- relative viability (SW 1573; first compound 4 µM): 0.564
